{
  "source": "paper PMC7509987",
  "about": "(Biochemistry, 2020)",
  "key": {"[1]": {"tested_on": "GPX", "settings": "great excess of 4-hydroxynonenal (1 mM); cited from earlier work"}, "[2]": {"target": "T1, DmTrxR-CCS (Drosophila melanogaster, UniProt P91938)", "test": "NADPH-pre-reduced enzyme", "assay_type": "biochemical", "settings": "n = 3"}, "[3]": {"target": "mTrxR-CUG (Mus musculus, UniProt Q9JLT4)", "sequence (Q9JLT4 35-524)": "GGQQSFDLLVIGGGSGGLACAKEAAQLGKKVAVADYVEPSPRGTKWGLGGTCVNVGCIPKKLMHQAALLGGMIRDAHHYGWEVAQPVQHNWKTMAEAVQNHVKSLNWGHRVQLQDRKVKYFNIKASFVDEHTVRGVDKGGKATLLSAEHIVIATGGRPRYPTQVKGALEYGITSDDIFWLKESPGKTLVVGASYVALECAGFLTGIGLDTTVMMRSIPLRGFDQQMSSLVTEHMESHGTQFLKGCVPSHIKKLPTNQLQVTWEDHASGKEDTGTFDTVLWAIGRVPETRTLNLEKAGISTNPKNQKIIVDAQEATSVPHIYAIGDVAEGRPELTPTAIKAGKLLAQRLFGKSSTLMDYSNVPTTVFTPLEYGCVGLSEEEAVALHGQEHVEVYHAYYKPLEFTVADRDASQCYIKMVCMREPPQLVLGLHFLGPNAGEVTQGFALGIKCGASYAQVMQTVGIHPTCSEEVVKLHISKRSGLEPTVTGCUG", "test": "Inhibition of Trx-reductase activity by electrophiles", "assay_type": "biochemical"}, "[4]": {"target": "mTrxR-C(αMe)UG (Mus musculus, UniProt Q9JLT4)", "sequence (Q9JLT4 35-524)": "as above", "test": "Inhibition of Trx-reductase activity by electrophiles", "assay_type": "biochemical"}, "[5]": {"target": "T1, DmTrxR-CCS", "test": "Inhibition of Trx-reductase activity by electrophiles", "assay_type": "biochemical, D. melanogaster", "settings": "7 μM acrolein, pH 7, 10 min, 22 °C"}, "[6]": {"test": "Solubility in aqueous solutions", "assay_type": "physicochemical"}, "[7]": {"tested_on": "mTrxR-C(αMe)UG", "assay_type": "biochemical", "settings": "read-out: KM (μM), Table 3, DTNB as substrate; n = 3"}, "[8]": {"tested_on": "mTrxR-C(αMe)UG", "assay_type": "biochemical", "settings": "read-out: KM (μM), Table 4, selenocysteamine as substrate; n = 3"}},
  "note": "Where two headings read alike, the source gives them in different places.",
  "data": [
    {"smiles": "CCCCCC(O)/C=C/C=O", "note": "(stereo not drawn) [4-Hydroxynonenal, 4-hydroxynonenal]", "values": [
      {"measurement": "inhibition of GPX", "setting": "[1]", "value": "could not be completely inhibited"}
    ]},
    {"smiles": "C=CC=O", "note": "[Acrolein, acrolein (prop-2-enal)]", "values": [
      {"measurement": "IC50", "setting": "[2]", "value": 7, "unit": "µM"}
    ]},
    {"smiles": "C=CC=O", "note": "[Acrolein, acrolein]", "values": [
      {"measurement": "inhibition of Trx-reductase activity", "setting": "[3]; 2.5 μM acrolein, pH 4.6, 10 min, 22 °C", "value": "75-85%"},
      {"measurement": "inhibition of Trx-reductase activity", "setting": "[4]; 800 nM acrolein, pH 5.5, 10 min, 22 °C", "value": "75-85%"},
      {"measurement": "inhibition of Trx-reductase activity", "setting": "[5]", "value": "75-85%"}
    ]},
    {"smiles": "O=C/C=C/c1ccccc1", "note": "[Cinnamaldehyde]", "values": [
      {"measurement": "IC50", "setting": "[3]", "value": 225, "unit": "µM"},
      {"measurement": "IC50", "setting": "[4]", "value": 230, "unit": "µM"}
    ]},
    {"smiles": "COc1cc(/C=C/C(=O)CC(=O)/C=C/c2ccc(O)c(OC)c2)ccc1O", "note": "[Curcumin, curcumin]", "values": [
      {"measurement": "IC50", "setting": "[3]", "value": 34, "unit": "µM"},
      {"measurement": "Trx-reductase activity remains", "setting": "[4]; at 100 uM curcumin, mutant mTrxR", "value": "~ 65%"},
      {"measurement": "solubility", "setting": "[6]", "value": "≤ 100", "unit": "µM"}
    ]},
    {"smiles": "O=C(O)c1cc(SSc2ccc([N+](=O)[O-])c(C(=O)O)c2)ccc1[N+](=O)[O-]", "note": "[DTNB, 5,5′-dithiobis(2-nitrobenzoic acid)]", "values": [
      {"measurement": "Km", "setting": "[7]", "value": "5 ± 0.9", "unit": "µM"}
    ]},
    {"smiles": "NCC[Se][Se]CCN", "note": "[selenocysteamine, selenocysteamine (diselenide, used as dichloride; selenocystamine)]", "values": [
      {"measurement": "Km", "setting": "[8]", "value": "92 ± 0.9", "unit": "µM"}
    ]}
  ]
}
